Columns and labels:
Assay type in all cases: in vivo
[1] = system: barnyardgrass (Echinochloa crus-galli); assay: Test A preemergence
In short: (§1)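 In a loam soil and sand blend, planted seeds got a preemergence directed soil spray, and young plants at the one- to two-leaf stage, 2–10 cm high, got a postemergence application; ~10 d greenhouse hold; injury rated visually, 0 = none, 100 = complete control.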

[2] = system: corn (Zea mays); assay: Test A preemergence
In short: as §1

[3] = system: crabgrass, large (Digitaria sanguinalis); assay: Test A preemergence
In short: as §1

[4] = system: giant foxtail (Setaria faberii); assay: Test A preemergence
In short: as §1

[5] = system: morningglory (Ipomoea spp.); assay: Test A preemergence
In short: as §1

[6] = system: pigweed (Amaranthus retroflexus); assay: Test A preemergence
[7] = system: velvetleaf (Abutilon theophrasti); assay: Test A preemergence
In short: as §1

[8] = system: wheat (Triticum aestivum); assay: Test A preemergence
In short: as §1

[9] = system: barnyardgrass (Echinochloa crus-galli); assay: Test A postemergence
In short: as §1

[10] = system: corn (Zea mays); assay: Test A postemergence
In short: as §1

[11] = system: crabgrass, large (Digitaria sanguinalis); assay: Test A postemergence
In short: as §1

[12] = system: giant foxtail (Setaria faberii); assay: Test A postemergence
In short: as §1

[13] = system: morningglory (Ipomoea spp.); assay: Test A postemergence
In short: as §1

[14] = system: pigweed (Amaranthus retroflexus); assay: Test A postemergence
In short: as §1

[15] = system: velvetleaf (Abutilon theophrasti); assay: Test A postemergence; conditions: 500 g ai/ha, postemergence; 0 to 100 scale, 0 no effect, 100 complete control
In short: as §1

[16] = system: wheat (Triticum aestivum); assay: Test A postemergence
In short: as §1

[17] = system: barnyardgrass (Echinochloa crus-galli); assay: Test C flooded paddy test; conditions: Flood, 0 is no effect, 100 is complete control
In short: (§2)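 Test compounds were dosed straight into the flood water of pots holding 2-leaf-stage plants, with water kept 3 cm above the soil. Greenhouse plants were scored visually against controls after 13 to 15 d, from 0 (no effect) to 100 (complete control).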

[18] = system: ducksalad (Heteranthera limosa); assay: Test C flooded paddy test; conditions: Flood, 0 is no effect, 100 is complete control
In short: as §2

[19] = system: rice (Oryza sativa); assay: Test C flooded paddy test; conditions: Flood, 0 is no effect, 100 is complete control
In short: as §2

[20] = system: sedge, umbrella (small-flower umbrella sedge, Cyperus difformis); assay: Test C flooded paddy test; conditions: Flood, 0 is no effect, 100 is complete control
In short: as §2

[21] = 125 g ai/ha, preemergence, 0 to 100 scale (0 no effect, 100 complete control)
[22] = Preemergence, 500 g ai/ha, 0 is no effect, 100 is complete control
[23] = 500 g ai/ha, postemergence, 0 to 100 scale, 0 no effect, 100 complete control
[24] = Postemergence, 125 g ai/ha, visual injury, 0 to 100 scale (0 no effect, 100 complete control), approx. 10 d

O=C1NCC(c2ccoc2)C1C(=O)Nc1ccccc1C(F)(F)F (racemic) [Compound 364]
0: Plant response rating, Barnyardgrass [1, 21] | Barnyardgrass plant response rating (0 to 100 scale) [1, 22] | Plant response rating, Corn [2, 21] | Corn plant response rating (0 to 100 scale) [2, 22] | Plant response rating, Crabgrass, Large [3, 21] | Crabgrass, Large plant response rating (0 to 100 scale) [3, 22] | Plant response rating, Foxtail, Giant [4, 21] | Foxtail, Giant plant response rating (0 to 100 scale) [4, 22] | Plant response rating, Morningglory [5, 21] | Morningglory plant response rating (0 to 100 scale) [5, 22] | Plant response rating, Pigweed [6, 21] | Pigweed plant response rating (0 to 100 scale) [6, 22] | Plant response rating, Velvetleaf [7, 21] | Velvetleaf plant response rating (0 to 100 scale) [7, 22] | Plant response rating, Wheat [8, 21] | Wheat plant response rating (0 to 100 scale) [8, 22] | Plant response rating, Barnyardgrass [9, 23] | Plant response rating, Barnyardgrass [9, 24] | Plant response rating, Corn [10, 23] | Plant response rating, Corn [10, 24] | Plant response rating, Crabgrass, Large [11, 23] | Plant response rating, Crabgrass, Large [11, 24] | Plant response rating, Foxtail, Giant [12, 23] | Plant response rating, Foxtail, Giant [12, 24] | Plant response rating, Morningglory [13, 23] | Plant response rating, Morningglory [13, 24] | Plant response rating, Pigweed [14, 23] | Plant response rating, Pigweed [14, 24] | Plant response rating, Velvetleaf [15] | Plant response rating, Wheat [16, 23] | Plant response rating, Wheat [16, 24] | Plant response rating (scale of 0 to 100), Barnyardgrass ([17]; 31 g ai/ha) | Plant response rating (scale of 0 to 100), Barnyardgrass ([17]; 62 g ai/ha) | Plant response rating (scale of 0 to 100), Barnyardgrass ([17]; 125 g ai/ha) | Plant response rating (scale of 0 to 100), Barnyardgrass ([17]; 250 g ai/ha) | Plant response rating (scale of 0 to 100), Ducksalad ([18]; 31 g ai/ha) | Plant response rating (scale of 0 to 100), Ducksalad ([18]; 62 g ai/ha) | Plant response rating (scale of 0 to 100), Ducksalad ([18]; 125 g ai/ha) | Plant response rating (scale of 0 to 100), Ducksalad ([18]; 250 g ai/ha) | Plant response rating (scale of 0 to 100), Rice ([19]; 31 g ai/ha) | Plant response rating (scale of 0 to 100), Rice ([19]; 62 g ai/ha) | Plant response rating (scale of 0 to 100), Rice ([19]; 125 g ai/ha) | Plant response rating (scale of 0 to 100), Rice ([19]; 250 g ai/ha) | Plant response rating (scale of 0 to 100), Sedge, Umbrella ([20]; 31 g ai/ha) | Plant response rating (scale of 0 to 100), Sedge, Umbrella ([20]; 62 g ai/ha) | Plant response rating (scale of 0 to 100), Sedge, Umbrella ([20]; 125 g ai/ha) | Plant response rating (scale of 0 to 100), Sedge, Umbrella ([20]; 250 g ai/ha)

Source: US12077503B2, “Substituted cyclic amides and their use as herbicides” (FMC CORPORATION, priority 2015, dated 2024)
